# Source: patent US12215111B2, “Imidazopyridazine IL-17 inhibitor compounds” (Janssen Pharmaceutica NV, priority 2021, dated 2025)
# System: IL-17A-induced G-CSF production in human normal keratinocyte (NHK)
# Assay: NHK assay: IL-17A-induced G-CSF production in normal human keratinocytes
# Format: cell-based
# Conditions: Homo sapiens, Keratinocyte; IL-17A 5 ng/mL, 24 h at 37° C., G-CSF by HTRF; simple average if tested more than once
# Procedure: IL-17A acts directly on keratinocytes through binding to dimeric receptor IL-17RA/RC and drives the production of a number of inflammatory mediators known to be elevated in psoriasis lesional tissue. IL-17A small molecule inhibitors that block the IL-17A to interact with IL-17R would inhibit the IL-17A signaling in its targeted cells such as keratinocytes. The compound functional activity is evaluated for its impact on IL-17A-induced G-CSF production in human normal keratinocyte (NHK).
# Adult normal human keratinocytes are cultured in keratinocyte growth medium (Lonza) in a flask till reaching ˜90% confluence, then cells are transferred to a 384-well plate at density of 3000-4000 cell/well. Recombinant human IL-17A (Gibco PHC9174) is pre-incubated with titrated compound or DMSO for 1 h at rt then added to the cell culture plate. The final concentration of IL-17A is 5 ng/mL and DMSO is 0.2%, in the culture containing 5% FBS. Cells are cultured/treated for 24 h at 37° C. Supernatants are collected and G-CSF production is measured through HTRF technology using Human G-CSF Kit (CisBio). G-CSF concentration was extrapolated from the standard curve and IC50 is determined using GraphPad Prism. Cell viability is also evaluated using CellTiter-Glo kit (Promega) and effect of compound on cell viability is compared to DMSO control.
row,SMILES,IC50
1,"COC[C@H](c1cnn2cc([C@H](CC(C)(C)C(F)(F)F)NC(=O)c3ccnn3C(C)C)nc2c1)N1C[C@@H](C(F)(F)F)NC1=O [Example 15, 1-Isopropyl-N—((S)-4,4,4-trifluoro-1-(7-((S)-2-methoxy-((S)-2-oxo-4-(trifluoromethyl)imidazolidin-1-yl)ethyl)imidazo[1,2-b]pyridazin-2-yl)-3,3-dimethylbutyl)-1H-pyrazole-5-carboxamide]",< 4 µM
2,"[2H]C1([2H])N([C@H](COC)c2cnn3cc([C@H](COC(C)(C)C(F)(F)F)NC(=O)c4nonc4C)nc3c2)C(=O)NC1([2H])C(F)(F)F (stereo in doubt) [Example 35, N—((R)-1-(7-((S)-2-Methoxy-1-((R)-2-oxo-4-(trifluoromethyl)imidazolidin-1-yl-4,5,5-d3)ethyl)imidazo[1,2-b]pyridazin-2-yl)-2-((1,1,1-trifluoro-2-methylpropan-2-yl)oxy)ethyl)-4-methyl-1,2,5-oxadiazole-3-carboxamide]",< 4 µM
3,"[2H]C1([2H])N([C@H](COC)c2cnn3cc([C@H](COC(C)(C)C(F)(F)F)NC(=O)c4nonc4C4CC4)nc3c2)C(=O)NC1([2H])C(F)(F)F (stereo in doubt) [Example 34, 4-Cyclopropyl-N—((R)-1-(7-((S)-2-methoxy-1-((R)-2-oxo-4-(trifluoromethyl)imidazolidin-1-yl-4,5,5-d3)ethyl)imidazo[1,2-b]pyridazin-2-yl)-2-((1,1,1-trifluoro-2-methylpropan-2-yl)oxy)ethyl)-1,2,5-oxadiazole-3-carboxamide]",< 4 µM
4,"COC[C@H](c1cnn2cc([C@H](CC(C)(C)C(F)(F)F)NC(=O)c3nonc3C)nc2c1)N1C[C@@H](C(F)(F)F)NC1=O [Example 14, 4-Methyl-N—((S)-4,4,4-trifluoro-1-(7-((S)-2-methoxy-1-((S)-2-oxo-4-(trifluoromethyl)imidazolidin-1-yl)ethyl)imidazo[1,2-b]pyridazin-2-yl)-3,3-dimethylbutyl)-1,2,5-oxadiazole-3-carboxamide]",< 4 µM
5,"CC(C)n1nccc1C(=O)N[C@H](c1cn2ncc([C@H](COC3CC3)N3C[C@@H](C(F)(F)F)NC3=O)cc2n1)C1CCC(F)(F)CC1 (single isomer, unassigned) [Example 44]",< 4 µM
6,"Cc1nonc1C(=O)N[C@H](c1cn2ncc(CN3C[C@@](C)(C(F)(F)F)NC3=O)cc2n1)C1CCC(F)(F)CC1 [Example 28, N—((S)—(4,4-Difluorocyclohexyl)(7-(((S)-4-methyl-2-oxo-4-(trifluoromethyl)imidazolidin-1-yl)methyl)imidazo[1,2-b]pyridazin-2-yl)methyl)-4-methyl-1,2,5-oxadiazole-3-carboxamide]",< 4 µM
7,CC(C)(OC[C@H](NC(=O)c1nonc1C1CC1)c1cn2ncc(CN3C[C@@H](C(F)(F)F)NC3=O)cc2n1)C(F)(F)F [Example 24],< 4 µM
8,"COC[C@H](c1cnn2cc([C@H](COC(C)(C)C(F)(F)F)NC(=O)[C@@H]3C[C@H]3C(F)(F)F)nc2c1)N1C[C@@H](C(F)(F)F)NC1=O (relative stereo) [Example 32, (1R*,2R*)—N—((R)-1-(7-((S)-2-Methoxy-((S)-2-oxo-4-(trifluoromethyl)imidazolidin-1-yl)ethyl)imidazo[1,2-b]pyridazin-2-yl)-2-(1,1,1-trifluoro-2-methylpropan-2-yl)oxy)ethyl)-2-(trifluoromethyl)cyclopropane-1-carboxamide]",< 4 µM
9,"Cc1nonc1C(=O)N[C@H](c1cn2ncc([C@@H](C3CC3)N3CC4(CC4)NC3=O)cc2n1)C1CCC(F)(F)CC1 [Example 21, N—[(S)—[7-[(R)-Cyclopropyl-(6-oxo-5,7-diazaspiro[2.4]heptan-5-yl)methyl]imidazo[1,2-b]pyridazin-2-yl]-(4,4-difluorocyclohexyl)methyl]-4-methyl-1,2,5-oxadiazole-3-carboxamide]",< 4 µM
10,C[C@@]1(C(F)(F)F)CN(Cc2cnn3cc([C@@H](NC(=O)c4nonc4C4CC4)C4CCC(F)(F)CC4)nc3c2)C(=O)N1 [Example 29],< 4 µM
